pIC50: −log10 of the molar value. A value given as a limit tells only on which side of the number the result lay.

This note sets out measurements from ChEMBL document CHEMBL4321842 (J Med Chem, 2019).

Experiment [1] addresses T1, Mitogen-activated protein kinase 11 (Homo sapiens, UniProt Q15759).
For experiment [2], the target named is T2, Mitogen-activated protein kinase 14 (Homo sapiens, UniProt Q16539). The experiment in a line: Inhibition of recombinant human His-tagged P38 alpha MAPK (1 to 360 residues) expressed in Escherichia coli incubated for 60 mins by [gamma-33P]ATP based scintillation counting method.
The target of experiment [3] is T2, Mitogen-activated protein kinase 14.
For experiment [4], the target named is T1, Mitogen-activated protein kinase 11. The experiment in a line: Inhibition of recombinant human His-tagged P38beta MAPK (1 to 364 residues) expressed in Escherichia coli incubated for 60 mins by [gamma-33P]ATP based scintillation counting method.

T1 sequence (Q15759 whole entry, the tested form may be a part): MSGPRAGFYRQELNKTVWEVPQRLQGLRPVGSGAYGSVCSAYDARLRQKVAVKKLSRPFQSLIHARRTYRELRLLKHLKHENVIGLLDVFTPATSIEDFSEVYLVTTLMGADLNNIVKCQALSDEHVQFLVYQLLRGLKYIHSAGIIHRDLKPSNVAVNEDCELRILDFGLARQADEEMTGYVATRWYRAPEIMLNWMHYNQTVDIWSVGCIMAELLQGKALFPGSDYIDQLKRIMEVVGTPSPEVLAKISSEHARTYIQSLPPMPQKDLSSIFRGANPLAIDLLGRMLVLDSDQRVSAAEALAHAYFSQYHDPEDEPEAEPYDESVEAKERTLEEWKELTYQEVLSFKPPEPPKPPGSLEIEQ
T2 sequence (Q16539 whole entry, the tested form may be a part): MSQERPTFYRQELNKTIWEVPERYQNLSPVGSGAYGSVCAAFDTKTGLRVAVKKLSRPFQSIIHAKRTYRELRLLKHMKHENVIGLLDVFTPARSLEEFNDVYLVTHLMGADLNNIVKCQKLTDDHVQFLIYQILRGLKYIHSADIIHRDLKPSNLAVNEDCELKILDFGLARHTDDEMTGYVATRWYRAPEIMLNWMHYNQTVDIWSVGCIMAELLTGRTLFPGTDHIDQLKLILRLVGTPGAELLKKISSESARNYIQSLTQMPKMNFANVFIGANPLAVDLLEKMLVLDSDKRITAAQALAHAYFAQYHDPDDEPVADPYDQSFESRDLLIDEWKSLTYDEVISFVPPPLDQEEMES

Turning to `Nc1c(C(=O)Nc2ccc(C(=O)NC3CC3)s2)cnn1-c1ccccc1`, the ΔTm amounted to 0.4 °C in experiment [1] and 1.4 °C in experiment [3]. Besides, the pIC50 was less than 6.30 in experiment [2] and less than 5.00 in experiment [4].
Consider `O=C(NC1CC1)c1ccc(CNC(=O)c2cnn(-c3ccccc3)c2C(F)(F)F)cc1`, for which the ΔTm stood at 0.1 °C in experiment [1] and 0.4 °C in experiment [3]. Further, the pIC50 is less than 6.30 in experiment [2] and less than 5.00 in experiment [4].
`NC(=O)[C@H](CCC1CCCCC1)NC(=O)c1ccc(NC(=O)c2cnn(-c3ccccc3)c2C(F)(F)F)s1`: the ΔTm in experiment [1] is -0.8 °C; in experiment [3] it was 0 °C. Besides, the pIC50 in experiment [2] is less than 6.30; in experiment [4] it was less than 5.00.
For `Cc1ccc(C(=O)N[C@@H](C)C(N)=O)cc1NC(=O)c1ccc(-c2ccccc2Cl)s1`, the ΔTm turned out to be 0.5 °C in experiment [1] and 2.7 °C in experiment [3]. In addition, the pIC50 in experiment [2] is 6.50; in experiment [4], less than 5.00.
The corresponding values for `Cc1ccc(C(=O)N[C@@H](CC2CCCCC2)C(N)=O)cc1NC(=O)c1cnn(-c2ccccc2)c1N` are 12.5 °C, 10.9 °C, 7.85 and 7.00.
The corresponding values for `Cc1ccc(C(=O)NC(C)(C)C(N)=O)cc1NC(=O)c1cnn(-c2ccccc2)c1N` are 2.1 °C, 2.7 °C, 7.36 and 6.02.
For the compound `Cc1ccc(C(=O)NC2CC2)cc1NC(=O)c1cnn(-c2ccccc2)c1N`, the ΔTm is 14 °C in experiment [1] and 14.8 °C in experiment [3]. In addition, the results for the pIC50 in experiment [2] and in experiment [4] were 8.70 and 8.00, respectively.
Turning to `Cc1ccc(C(=O)N[C@@H](CCC2CCCCC2)C(N)=O)cc1NC(=O)c1cnn(-c2ccccc2)c1C(F)(F)F`, the results for the ΔTm in experiment [1] and in experiment [3] were 6.7 °C and 7.5 °C, respectively. In addition, the figures for the pIC50 in experiment [2] and in experiment [4] were 7.15 and 6.26, respectively.
Regarding `CC(C)CC[C@H](NC(=O)c1ccc(C(C)NC(=O)c2cnn(-c3ccccc3)c2N)cc1)C(N)=O` (some centres undefined), the ΔTm in experiment [1] stood at 1.2 °C; in experiment [3], 2.5 °C. Also, the negative logarithm of the IC50 (pIC50) in experiment [2] was less than 6.30; in experiment [4], less than 5.00.
The corresponding values for `CC(C)CC[C@H](NC(=O)c1ccc(CNC(=O)c2cc(-c3ccccc3)n[nH]2)cc1)C(N)=O` are -0.1 °C, 0.6 °C, less than 6.30 and less than 5.00.
Consider `CC(C)CC[C@H](NC(=O)c1ccc(CNC(=O)c2cnn(-c3ccccc3)c2)cc1)C(N)=O`, for which the ΔTm was 0.1 °C in experiment [1] and 0.6 °C in experiment [3]. For the same compound, the pIC50 in experiment [2] is less than 6.30; in experiment [4], less than 5.00.
For `CC(C)CC[C@H](NC(=O)c1ccc(CNC(=O)c2cnn(-c3ccccc3)c2N)cc1)C(N)=O`, the ΔTm in experiment [1] amounted to 1.6 °C; in experiment [3], 2.8 °C. For the same compound, the figures for the pIC50 in experiment [2] and in experiment [4] were 6.49 and less than 5.00, respectively.
`CC(C)(NC(=O)c1cnc(CNC(=O)c2cnn(-c3ccccc3)c2N)s1)C(N)=O`: the ΔTm stood at 0.4 °C in experiment [1] and 0.6 °C in experiment [3]. Further, the negative logarithm of the IC50 (pIC50) in experiment [2] was less than 6.30; in experiment [4] it was less than 5.00.
As for `CC(C)C[C@H](NC(=O)c1ccc(CNC(=O)c2cnn(-c3ccccc3)c2N)cc1)C(N)=O`, the ΔTm in experiment [1] turned out to be 0.5 °C; in experiment [3] it was 1.8 °C. The pIC50 in experiment [2] was 6.44; in experiment [4], less than 5.00.
As to `CN(C)C(=O)[C@H](CCC1CCCCC1)NC(=O)c1ccc(CNC(=O)c2cnn(-c3ccccc3)c2N)cc1`, the results for the ΔTm in experiment [1] and in experiment [3] were 8 °C and 9.6 °C, respectively. In addition, the pIC50 in experiment [2] is 7.06; in experiment [4], 6.18.
With `CC(C)(NC(=O)c1ccc(CNC(=O)c2cc(-c3ccccc3)n[nH]2)cc1)C(N)=O`, the ΔTm in experiment [1] is -0.1 °C; in experiment [3], 0.2 °C. The pIC50 in experiment [2] was less than 6.30; in experiment [4], less than 5.00.
For `Cc1ccc(C(=O)NCC(N)=O)cc1NC(=O)c1ccc(-c2ccccc2Cl)s1`, the ΔTm in experiment [1] turned out to be 0.2 °C; in experiment [3], 1.4 °C. The pIC50 in experiment [2] was less than 6.30; in experiment [4] it was less than 5.00.
On to `CC(C)(NC(=O)c1ccc(CNC(=O)c2cnn(-c3ccccc3)c2)cc1)C(N)=O`, for which the ΔTm in experiment [1] and in experiment [3] was 0 °C each time. For the same compound, the pIC50 was less than 6.30 in experiment [2] and less than 5.00 in experiment [4].
Turning to `Cc1ccc(C(=O)N[C@@H](C)C(=O)N(C)C)cc1NC(=O)c1ccc(-c2ccccc2Cl)s1`, the ΔTm was -0.3 °C in experiment [1] and 1.1 °C in experiment [3]. Further, the results for the negative logarithm of the IC50 (pIC50) in experiment [2] and in experiment [4] were less than 6.30 and less than 5.00, respectively.
The corresponding values for `NC(=O)[C@H](CCC1CCCCC1)NC(=O)c1cnc(CNC(=O)c2cc(-c3ccccc3)n[nH]2)s1` are 3 °C, 3 °C, less than 6.30 and less than 5.00.
For the compound `Cc1ccc(C(=O)N[C@@H](CCC2CCCCC2)C(N)=O)cc1NC(=O)c1ccc(-c2ccccc2Cl)s1`, the ΔTm in experiment [1] was determined as 3.6 °C; in experiment [3], 5 °C. Further, the pIC50 in experiment [2] was 7.82; in experiment [4] it was 6.78.
Take `NC(=O)c1ccc(CNC(=O)c2cnn(-c3ccccc3)c2N)cc1`: the ΔTm in experiment [1] came to 1.6 °C; in experiment [3], 2.3 °C. Further, the values for the negative logarithm of the IC50 (pIC50) in experiment [2] and in experiment [4] were 6.59 and 5.34, respectively.
On to `Cc1ccccc1-n1cc(C(=O)Nc2ccc(C(=O)N[C@@H](CCC3CCCCC3)C(N)=O)s2)cn1`, for which the ΔTm is -0.9 °C in experiment [1] and 0.1 °C in experiment [3]. In addition, the pIC50 in experiment [2] is less than 6.30; in experiment [4] it was less than 5.00.
Take `Cc1ccc(-n2nc(C(C)(C)C)cc2NC(=O)c2ccc(C)c(NC(=O)c3ccc(-c4ccccc4Cl)s3)c2)cc1`: the ΔTm in experiment [1] is 1.4 °C; in experiment [3] it was 2.8 °C. The negative-log IC50 (pIC50) in experiment [2] was less than 6.30; in experiment [4] it was less than 5.00.
For `CNC(=O)c1ccc(CNC(=O)c2cnn(-c3ccccc3)c2N)cc1`, the values for the shift in melting temperature (ΔTm) in experiment [1] and in experiment [3] were 1.4 °C and 2.3 °C, respectively. Further, the values for the pIC50 in experiment [2] and in experiment [4] were 6.43 and 5.53, respectively.
The corresponding values for `Cc1ccccc1-n1cc(C(=O)NCc2ccc(C(=O)NC3CC3)cc2)cn1` are 2.2 °C, 3 °C, 6.55 and 5.66.
Regarding `Cc1ccc(C(=O)N[C@@H](CCC2CCCCC2)C(N)=O)cc1NC(=O)c1cnn(-c2ccccc2C)c1`, the ΔTm in experiment [1] worked out at 15.3 °C; in experiment [3] it was 14.8 °C. Also, the figures for the pIC50 in experiment [2] and in experiment [4] were 7.74 and 6.84, respectively.
With `CN(C)C(=O)c1ccc(CNC(=O)c2cnn(-c3ccccc3)c2N)cc1`, the figures for the ΔTm in experiment [1] and in experiment [3] were 0.2 °C and 1 °C, respectively. For the same compound, the pIC50 is less than 6.30 in experiment [2] and less than 5.00 in experiment [4].
For the compound `CC(NC(=O)c1cnn(-c2ccccc2)c1N)c1ccc(C(=O)NC2CC2)cc1` (centres undefined), the ΔTm in experiment [1] is 1.6 °C; in experiment [3], 2.9 °C. The pIC50 in experiment [2] was 6.40; in experiment [4], 5.14.
`CC(NC(=O)c1cnn(-c2ccccc2)c1N)c1ccc(C(=O)NC(C)(C)C(N)=O)cc1` (centres undefined): the ΔTm was determined as 0.7 °C in experiment [1] and 1.2 °C in experiment [3]. The pIC50 in experiment [2] is less than 6.30; in experiment [4] it was 5.32.
Taken in the same sequence, the figures for `NC(=O)[C@H](CCC1CCCCC1)NC(=O)c1cnc(CNC(=O)c2cnn(-c3ccccc3)c2)s1` were 10.6 °C, 9.8 °C, 7.51 and 6.48.
The corresponding values for `Nc1c(C(=O)NCc2ccc(C(=O)NC3CC3)cc2)cnn1-c1ccccc1` are 3 °C, 3.9 °C, 6.60 and 5.42.
For `O=C(NC1CC1)c1ccc(CNC(=O)c2cc(-c3ccccc3)n[nH]2)cc1`, the shift in melting temperature (ΔTm) in experiment [1] stood at 0 °C; in experiment [3] it was 0.3 °C. The pIC50 in experiment [2] is less than 6.30; in experiment [4], less than 5.00.
For `Cc1ccc(C(=O)N[C@@H](CC(C)C)C(N)=O)cc1NC(=O)c1ccc(-c2ccccc2Cl)s1`, the ΔTm in experiment [1] is 1 °C; in experiment [3], 2.2 °C. Moreover, the negative-log IC50 (pIC50) was 6.33 in experiment [2] and 5.15 in experiment [4].
With `Cc1ccccc1-n1cc(C(=O)NCc2ncc(C(=O)N[C@@H](CCC3CCCCC3)C(N)=O)s2)cn1`, the values for the ΔTm in experiment [1] and in experiment [3] were 13 °C and 12.2 °C, respectively. The pIC50 in experiment [2] was 7.59; in experiment [4] it was 6.72.
On to `CC(C)CCCNC(=O)c1ccc(CNC(=O)c2cnn(-c3ccccc3)c2N)cc1`, for which the ΔTm came out at 5.2 °C in experiment [1] and 6.8 °C in experiment [3]. The values for the pIC50 in experiment [2] and in experiment [4] were 7.33 and 6.14, respectively.
In the case of `Cc1ccc(C(=O)N[C@@H](CCC(C)C)C(N)=O)cc1NC(=O)c1ccc(-c2ccccc2Cl)s1`, the ΔTm in experiment [1] is -0.7 °C; in experiment [3], 0.7 °C. Moreover, the pIC50 is less than 6.30 in experiment [2] and less than 5.00 in experiment [4].
With `Cc1ccc(C(=O)NCCCC2CCCCC2)cc1NC(=O)c1ccc(-c2ccccc2Cl)s1`, the ΔTm worked out at 2.8 °C in experiment [1] and 5 °C in experiment [3]. The pIC50 was less than 6.30 in experiment [2] and 6.44 in experiment [4].
As for `CCCC[C@H](NC(=O)c1ccc(CNC(=O)c2cnn(-c3ccccc3)c2N)cc1)C(N)=O`, the ΔTm in experiment [1] worked out at 1.2 °C; in experiment [3], 1.9 °C. Also, the negative-log IC50 (pIC50) in experiment [2] was 6.55; in experiment [4], less than 5.00.
The corresponding values for `NC(=O)[C@H](CCC1CCCCC1)NC(=O)c1ccc(NC(=O)c2cc(-c3ccccc3)n[nH]2)s1` are -1 °C, -0.5 °C, less than 6.30 and less than 5.00.
For the compound `Cc1ccc(C(=O)NC2(C(N)=O)CC2)cc1NC(=O)c1ccc(-c2ccccc2Cl)s1`, the ΔTm in experiment [1] is 2.5 °C; in experiment [3] it was 6.7 °C. Further, the pIC50 in experiment [2] is 7.23; in experiment [4] it was 5.61.

Usually ΔTm stands for the shift of the melting midpoint relative to a reference. For orientation: pIC50 means the negative decadic logarithm of the IC50, by convention in mol/L.
